The term EC50 denotes the concentration needed to bring the measured effect to its halfway point. A higher EC50 goes with a need for much substance. What is called EC90 is the concentration at which the effect reaches the 90% level. As usually defined, the IC50 is the point on the concentration scale where inhibition reaches its midpoint.

The structures appear in SMILES notation.

The subject of assay [1] is HIVs68Δ-23 (S68del virus isolated at week 23). Kind of assay: 3H-TTP RT incorporation assay, drug susceptibility of in vitro-selected S68del virus in human PBM cells. In kind it is cell-based, HIV-1. Particulars: Human immunodeficiency virus 1, PBMC; HIVs68Δ-23 in human PBM cells; averages of 2-6 independent experiments. As to the method: Peripheral blood mononuclear (PBM) cells were separated by ficoll-hypaque (Histopaque 1077: Sigma) density gradient centrifugation from Buffy coats obtained from the American Red Cross (Atlanta, Ga.). Buffy coats were derived from healthy seronegative donors. Cells were activated with 3 μg/ml phytohaemagglutinin A (Sigma-Aldrich, St. Louis, Mo.) in 500 ml of RPMI-1640 (Mediatech Inc., Herndon, Va.) containing 100 ml heat-inactivated fetal bovine serum (Hyclone), 83.3 IU/ml penicillin, 83.3 μg/ml streptomycin, 1.6 mM L-glutamine (Mediatech Inc., Herndon, Va.), for 2-3 days prior to use.
Drug resistance of the S68del virus isolated at week 23 (HIVs68Δ-23) was measured with the 3H-TTP RT incorporation assay in human PBM cells (Schinazi, et al., Antimicrob. Agents Chemother. 1990; 34:1061-1067; Stuyver et al., Antimicrob. Agents Chemother. 2002; 46:3854-60). HIVs68Δ-23 was population sequenced to ensure the dominant population was the deletion at codon 68. […] The susceptibility of the S68del virus to several nucleoside reverse transcriptase inhibitors (NRTI), a non-nucleoside reverse transcriptase inhibitor (NNRTI) and a protease inhibitor (PI) was tested. Fold increases were measured relative to HIVLAI (Table 4, FIGS. 2 and 3). Data are the averages of 2-6 independent experiments.

The target in assay [2] is T1, RT from virally-derived S68del (Human immunodeficiency virus type 1 group M subtype B, UniProt P03367, DEL667-667).
T1 construct: The resistance of RT derived from S68del and M184V particles; made in house; host or cells: crude virus pellet; the virus was passaged in human PBM cells
Kind of assay: Heteropolymeric-DNA colorimetric RT assay with 3.2 mM ATP, particle-derived S68del RT. The class given is biochemical, HIV-1. Particulars: for resistance of S68del RT (in words): particle-derived RT, 3.2 mM ATP, FIG. 5; for fold increase in resistance: virally-derived S68del RT, relative to HIVLAI, enzymatic assay. The source says: (§1) The principle and performance of the non-radioactive RT assay has been described (Lennerstrand et al., Antimicrob. Agents Chemother. 2007; 51:2078-2084). Separate kit components, such as covalently-linked DNA microtiter plates and tracer solution (alkaline phosphate (AP)-conjugated anti-BrdU antibody) were obtained from Cavidi Tech, Uppsala, Sweden. In brief, the 96-well microtiter plate used consisted of an 18 base heteropolymeric DNA primer covalently bound to the well. In the RT assay, the DNA primer is bound to a 50-base DNA template at 50 ng/well (190 nM) with a 5′-A12-3′ tail with a 5′-(GTCA)5-3′ repeat (Integrated DNA Technologies, USA). The RT assay reaction mixture (total volume 150 μl/well) contained: Hepes 50 mM, pH 7.3; MgCl2 10 mM; Triton X-100 0.5%; bovine serum albumin 0.1 mg/ml; dATP, dGTP, dCTP and 5-bromo-2′-deoxyuridine-5′-triphosphate (BrdUTP) at 1.0 μM each (where BrdUTP replaces TTP) (Sigma). To obtain ATP primer unblocking reaction in the assay, the ATP (Amersham/GE Health Care) was set to physiological concentration (3.2 mM). However, the ATP was only used in the assay with virus pellets as sample, not merely for primer unblocking reaction but to protect degradation of substrate in the crude sample. Furthermore, the dNTP level including BrdUTP was increased from 1 μM to 4 μM for the assay with the virus pellet samples. Subsequently, in the assay with recombinant purified RT enzyme, no ATP besides 1 μM dNTP was used.
(§2) The reaction was started with the addition of RT either as recombinant or crude virus pellet form in a similar activity range as previous published (Lennerstrand et al., Antimicrob. Agents Chemother. 2007; 51:2078-2084). The RT reaction mixture was incubated at 33° C. for 180 min and terminated by NaOH (to dehybridize the template) and water washing of the plates.

Assay [3] addresses RT derived from M184V particles (Human immunodeficiency virus type 1 group M subtype B, UniProt P03367, M783V). As to conditions: particle-derived RT, 3.2 mM ATP, FIG. 5.
Description: as §1, with “Subsequently, in the assay with recombinant purified RT enzyme, no ATP besides 1 μM dNTP was used.” left out

For assay [4], the system named is Recombinant S68del Reverse Transcriptase. Briefly: Heteropolymeric DNA polymerase RT assay in the absence of ATP, recombinant S68del RT. In kind it is biochemical, HIV-1. Particulars: Recombinant S68del RT IC50 divided by wild type IC50. On the procedure: (§3) Nucleic acids were separated by gel electrophoresis in a TAE gel and extracted from bands using the Qiagen gel extraction kit. The 4.2 kb band from pNL4-3 containing the HIV-RT encoding sequences was ligated into the linearized pCR2.1, making the construct MC002. Site directed mutagenesis was performed on the MC002 plasmid. Primers used had the S68 codon AGT deleted, thus introducing the S68 deletion into the pNL4-3 RT background.
(§4) To ligate the RT of pNL4-3 comprising the deletion at S68 codon 68 into protein expression vector […] (Invitrogen), MC002 was amplified using forward primer 5′-[…]-3′ (SEQ ID NO: 10) and reverse primer 5′-[…] […]-3′ (SEQ ID NO: 11). The PCR product and pQE60 were digested with Bgl II and Nco I. The digested products were separated by gel electrophoresis nucleic acids in excised gel bands extracted using the Qiagen gel extraction kit. The amplified PCR product comprising the RT of pNL4-3 was ligated into the linearized pQE60. The ligation mix was transformed into chemically competent bacteria (Alpha-select). Plasmid DNA from selected transformants was extracted using a mini-prep kit (Qiagen). Plasmid DNA was sequenced in both directions to confirm the ligation.
as §1, §2

Assay [5] has as its target T2, Recombinant S68del Reverse Transcriptase (Human immunodeficiency virus type 1 group M subtype B, UniProt P12497, DEL655-655).
T2 construct: The amplified PCR product comprising the RT of pNL4-3 was ligated into the linearized pQE60; inferred from the pQE60 vector and the in-frame BglII site of the reverse primer without a stop codon) (C); made in house; host or cells: bacteria
The assay is described as above. The class given is biochemical, HIV-1. As to the method:
as §3, §4, §1, §2

The target of assay [6] is T3, Wild type Reverse Transcriptase (Human immunodeficiency virus type 1 group M subtype B, UniProt P12497).
T3 construct: The level of resistance to NRTI-TP by the S68del mutants compared to wild type RT
Briefly: Heteropolymeric DNA polymerase RT assay in the absence of ATP, wild type RT. The class given is biochemical, HIV-1. As to conditions: for IC50: Wild type RT; for Fold-incr: Wild type RT (reference). As to the method:
The level of resistance to NRTI-TP by the S68del mutants compared to wild type RT was determined as IC50 values of RT activity in the absence of ATP (Table 6). […] The RT activity was linear during the assay time within the substrate range used, and thus steady state kinetics were assumed.

For the next assay, the system named is pNL4-3. Kind of assay: Quantitative HIV-1 real-time PCR assay in human PBM cells, pNL4-3 virus. The class given is cell-based. As to conditions: Human immunodeficiency virus 1, PBMC, pNL4-3 in human PBM cells. The source says: The real-time PCR assay for quantifying virus levels in PBM cells serves as a more sensitive method for measuring drug resistance of S68del HIV-1 than other standard methods. SK38 Primer: ATAATCCACCTATCCCAGTAGGAGAAAT (SEQ ID NO: 1) and SK39 Primer: TTTGGTCCTTGTCTTATGTCCAGAATGC (SEQ ID NO: 2) were used in the real-time PCR assay. The presence of amplified product was detected with the SK19 probe: ATCCTGGGATTAAATAAAATAGTAAGAATGTATAG (SEQ ID NO: 3). […] Four concentrations were tested in duplicate for each data point.
On the technique in general: In qPCR the cycle at which signal appears reflects the starting amount.

The subject of a further assay is S68delpNL4-3. Kind of assay: microbe, parasite or virus in culture. The class given is cell-based, HIV-1. The source says:
An intermediate vector with a 4 kb fragment of pNL4-3 ([…]) containing the RT coding region was cloned into the pCR2.1 vector (Invitrogen). […] The HIV-1 fragment from the intermediate vector was digested with Spe I/Age I and subcloned into the full-length pNL4-3 vector. The S68del pNL4-3-based infectious clone was then transfected into HEK293T cells and supernatant was collected after 4 days. The supernatant obtained from HEK293T was used to infect fresh PBM cells, after which the HIV-1 virus pool was passaged to establish an infective pool.
Four concentrations were tested in duplicate for each data point.

Setting [7] is: Human immunodeficiency virus 1, PBMC, S68del in pNL4-3, human PBM cells, real-time PCR.

In the case of `Nc1nc(=O)n([C@@H]2CS[C@H](CO)O2)cc1F` (relative stereo) [(−)-FTC, cis-2-hydroxymethyl-5-(5-fluorocytosin-1-yl)-1,3-oxathiolane], in assay [1], a half-maximal response (EC50) required 300 nM and it took 1100 nM to reach the 90% level (EC90). In assay [2], the “resistance of S68del RT (in words)” value is on record as “increased resistance”. Also, the “resistance of M184V RT (in words)” value in assay [3] is listed as “increased resistance”.
Take `Nc1nc(=O)n(C2CSC(COP(=O)(O)OP(=O)(O)OP(=O)(O)O)O2)cc1F` (single isomer, unassigned; (-)) [(−)FTC-TP]: the Fold-incr in assay [4] is 7.7; in assay [6], 1.0. The IC50 came out at 27000 ± 2000 nM in assay [5] and 3500 ± 300 nM in assay [6]. Besides, the “fold increase in resistance” value in assay [2] stood at 10 fold.
The like results for `Cc1cn(C2CC(N=[N+]=[N-])C(COP(=O)(O)OP(=O)(O)OP(=O)(O)O)O2)c(=O)[nH]c1=O` (centres unmarked) [AZT-TP] were, in that order, 2.6, 1.0, 700 ± 100 nM, 270 ± 20 nM and 2.5 fold.
On to `Nc1nc(=O)n([C@H]2C=C[C@@H](CO)O2)cc1F` [DFC, β-D-2′,3′-didehydro-2′,3′-dideoxy-5-fluorocytidine], for which, in assay [1], the response was half-maximal at 1100 nM (EC50) and the EC90 is 3400 nM. Also, in assay [2], the “resistance of S68del RT (in words)” value was “increased resistance”. For the same compound, in the assay on pNL4-3, the EC50 was determined as 210 nM and the 90% effect level (EC90) was put at 2300 nM. Besides, in the assay on S68delpNL4-3 (setting [7]), the EC50 amounted to 3100 nM and the EC90 was 8500 nM. Also, in the assay on S68delpNL4-3 (S68del in pNL4-3 versus pNL4-3), the “FI50, Fold Increase for S68del in 50% effective concentration” value amounted to 14.7 and the “FI90, Fold Increase for S68del in 90% effective concentration” value was 3.7. Besides, in the assay on S68delpNL4-3 (real-time PCR, human PBM cells), the “resistance of S68delpNL4-3 (in words)” value is “increased resistance”.
On to `Nc1nc(=O)n(C2C=CC(COP(=O)(O)OP(=O)(O)OP(=O)(O)O)O2)cc1F` (centres unmarked) [DFC-TP], for which the Fold-incr is 7.9 in assay [4] and 1.0 in assay [6]. Further, the IC50 was 1100 ± 200 nM in assay [5] and 140 ± 20 nM in assay [6]. The “fold increase in resistance” value in assay [2] is on record as 5.6 fold.

(Values after patent publication US9428815B2, “HIV-1 reverse transcriptase codon deletion and its use in the management and treatment of HIV infections” (Emory University, priority 2007, dated 2016).)
